The text below walks through data of ChEMBL document CHEMBL2074216, “Novel camptothecin analogues that circumvent ABCG2-associated drug resistance in human tumor cells” (Int J Cancer, 2004).

Molecules are shown by their SMILES.

The data set has as its target T1, Broad substrate specificity ATP-binding cassette transporter ABCG2 (Homo sapiens, UniProt Q9UNQ0).
T1 sequence (Q9UNQ0 whole entry): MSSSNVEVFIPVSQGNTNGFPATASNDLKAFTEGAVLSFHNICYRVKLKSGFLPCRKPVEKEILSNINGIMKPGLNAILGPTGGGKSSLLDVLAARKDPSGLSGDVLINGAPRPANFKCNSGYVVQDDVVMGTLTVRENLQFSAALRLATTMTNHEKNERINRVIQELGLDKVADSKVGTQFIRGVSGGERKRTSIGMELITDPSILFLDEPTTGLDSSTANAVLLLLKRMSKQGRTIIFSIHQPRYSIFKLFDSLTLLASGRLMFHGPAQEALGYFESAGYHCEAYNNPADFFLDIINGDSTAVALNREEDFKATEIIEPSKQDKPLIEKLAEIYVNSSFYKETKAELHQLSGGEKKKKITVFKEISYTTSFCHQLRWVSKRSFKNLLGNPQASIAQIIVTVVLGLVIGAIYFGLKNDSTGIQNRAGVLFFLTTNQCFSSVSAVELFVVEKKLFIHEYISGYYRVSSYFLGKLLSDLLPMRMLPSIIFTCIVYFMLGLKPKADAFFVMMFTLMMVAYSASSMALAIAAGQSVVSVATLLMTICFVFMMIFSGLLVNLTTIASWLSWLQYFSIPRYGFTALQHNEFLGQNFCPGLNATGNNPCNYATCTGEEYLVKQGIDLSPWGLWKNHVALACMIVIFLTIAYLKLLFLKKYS
The data set is described as follows: TP_TRANSPORTER: uptake in BCRP-expressing PC-6 cells. The data set is classed as functional, cell-based.
As for `CCc1c2c(nc3cc(F)c(O)cc13)-c1cc3c(c(=O)n1C2)COC(=O)[C@]3(O)CC`, the Activity result was “substrate []”.

`CCc1c2c(nc3cc(F)c(OC)cc13)-c1cc3c(c(=O)n1C2)COC(=O)[C@]3(O)CC`: the Activity entry is “substrate []”.

Turning to `CCc1c2c(nc3cc(O)ccc13)-c1cc3c(c(=O)n1C2)COC(=O)[C@]3(O)CC`, the Activity result was “substrate []”.

On to `CCc1c2c(nc3cc(Br)ccc13)-c1cc3c(c(=O)n1C2)COC(=O)[C@]3(O)CC`, for which the Activity result was “substrate []”.

For the compound `CCc1c2c(nc3ccc(Cl)cc13)-c1cc3c(c(=O)n1C2)COC(=O)[C@]3(O)CC`, the Activity entry is “substrate []”.

Turning to `CCc1c2c(nc3ccc(N)cc13)-c1cc3c(c(=O)n1C2)COC(=O)[C@]3(O)CC`, the Activity result is “substrate []”.

As to `CCc1c2c(nc3ccc(O)cc13)-c1cc3c(c(=O)n1C2)COC(=O)[C@]3(O)CC` [7-ETHYL-10-HYDROXYCAMPTOTHECIN], the Activity result is “substrate []”.
